In BindingDB's records for doi:10.1021/acs.jmedchem.0c00961 (Rheinische Friedrich-Wilhelms-University Bonn, 2020):

Experiments:
[1] = Inhibition of human ABCC1-mediated multidrug resistance in MDCK2 cells assessed as potentiation of doxorubicin-induced cytotoxicity by measuring half maximal reversal concentration after 72 hrs by MTT assay
[2] = Inhibition of human ABCG2-mediated multidrug resistance in MDCK2 cells assessed as potentiation of SN-38-induced cytotoxicity by measuring half maximal reversal concentration after 72 hrs by MTT assay
[3] = Inhibition of human ABCB1-mediated multidrug resistance in human A2780/ADR cells assessed as potentiation of doxorubicin-induced cytotoxicity by measuring half maximal reversal concentration after 72 hrs by MTT assay

Row | SMILES | EC50 [1] | EC50 [2] | EC50 [3]
1 | Cc1cc(Nc2ccc3ncccc3c2)nc(-c2ccccc2)n1 | 5150 nM | 16 nM | 8410 nM
2 | Cc1cc(Nc2ccc(C#N)c(Br)c2)nc(-c2ccccc2)n1 |  | 15 nM | 
3 | Cc1cc(Nc2ccc([N+](=O)[O-])cc2)nc(-c2ccccc2)n1 |  | 16 nM | 
4 | Cc1cc(Nc2ccc(C#N)c(C(F)(F)F)c2)nc(-c2ccccc2)n1 |  | 15 nM | 
5 | Cc1cc(Nc2ccc(F)c(C#N)c2)nc(-c2ccccc2)n1 |  | 21 nM | 
6 | Cc1cc(Nc2ccc(C#N)c(C)c2)nc(-c2ccccc2)n1 |  | 11 nM | 
